Results: US12466804B2 (BRISTOL-MYERS SQUIBB COMPANY, priority 2019, dated 2025)

Molecular target: T1, human LPA1 (Homo sapiens, UniProt Q92633)
T1 construct: expressed in transfected cells; host or cells: Chinese hamster ovary (CHO) cells
Assay: LPA1 functional antagonist assay (LPA-induced calcium flux)
Format: cell-based
Conditions: CHO cells overexpressing human LPA1; calcium flux induced by 10 nM LPA; read-out: hLPA1 IC50
Method: The effectiveness of compounds of the present invention as LPA1 inhibitors can be determined in an LPA1 functional antagonist assay as follows:
The cells were then equilibrated to room temperature for 30 minutes before the assay. […] IC50 values were determined by fitting data to a 4-parameter logistic equation (GraphPad Prism, San Diego CA).

T1 sequence (Q92633 whole entry): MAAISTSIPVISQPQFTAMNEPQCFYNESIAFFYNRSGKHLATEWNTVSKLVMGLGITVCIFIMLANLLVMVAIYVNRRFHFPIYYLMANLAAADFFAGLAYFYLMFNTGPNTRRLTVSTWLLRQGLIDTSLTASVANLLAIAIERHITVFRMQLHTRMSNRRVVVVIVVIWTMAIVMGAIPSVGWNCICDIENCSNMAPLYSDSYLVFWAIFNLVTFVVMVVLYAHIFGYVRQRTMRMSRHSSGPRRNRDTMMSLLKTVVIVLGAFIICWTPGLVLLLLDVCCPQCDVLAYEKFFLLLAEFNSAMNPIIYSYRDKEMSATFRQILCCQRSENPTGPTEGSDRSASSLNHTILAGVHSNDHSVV

| IC50 | SMILES |
| --- | --- |
| 49 nM | Cc1nc(-c2nnn(C)c2CNc2nccc(-c3ccccc3)n2)ccc1OC[C@@H]1CC[C@H]1C(=O)O (racemic) [Example 35, (±)-(1R,2R)-2-(((2-Methyl-6-(1-methyl-5-(((4-phenylpyrimidin-2-yl)amino)methyl)-1H-1,2,3-triazol-4-yl)pyridin-3-yl)oxy)methyl)cyclobutanecarboxylic acid] |
| 86 nM | Cc1nc(-c2nnn(C)c2Cn2nnc(CC3CC3)n2)ccc1OC[C@@H]1CC[C@H]1C(=O)O (racemic) [Example 36, (±)-(1R,2R)-2-(((6-(5-((5-(Cyclopropylmethyl)-2H-tetrazol-2-yl)methyl)-1-methyl-1H-1,2,3-triazol-4-yl)-2-methylpyridin-3-yl)oxy)methyl)cyclobutane-1-carboxylic acid] |
| 267 nM | Cc1nc(-c2nnn(C)c2Cn2nnnc2CC2CC2)ccc1OC[C@@H]1CC[C@H]1C(=O)O (racemic) [Example 37, (±)-(1R,2R)-2-(((6-(5-((5-(Cyclopropylmethyl)-1H-tetrazol-1-yl)methyl)-1-methyl-1H-1,2,3-triazol-4-yl)-2-methylpyridin-3-yl)oxy)methyl)cyclobutane-1-carboxylic acid] |
| 520 nM | Cc1nc(-c2nnn(C)c2CNc2ncc(-c3ccccn3)o2)ccc1OC[C@@H]1CC[C@H]1C(=O)O (racemic) [Example 40, (±)-(1R,2R)-2-(((2-methyl-6-(1-methyl-5-(((5-(pyridin-2-yl)oxazol-2-yl)amino)methyl)-1H-1,2,3-triazol-4-yl)pyridin-3-yl)oxy)methyl)cyclobutanecarboxylic acid] |
| 435 nM | Cc1nc(-c2nnn(C)c2COC(=O)NC2CCCCC2)ccc1OC[C@@H]1CC[C@H]1C(=O)O (racemic) [Example 45, (±)-(1R,2R)-2-(((6-(5-(((cyclohexylcarbamoyl)oxy)methyl)-1-methyl-1H-1,2,3-triazol-4-yl)-2-methyl-pyridin-3-yl)oxy)methyl)cyclobutane-1-carboxylic acid] |
| 275 nM | CCCN(C)C(=O)OCc1c(-c2ccc(OC[C@@H]3CC[C@H]3C(=O)O)c(C)n2)nnn1C (racemic) [Example 46] |
| 23 nM | Cc1nc(-c2nnn(C)c2COC(=O)N(C)C2CCCC2)ccc1OC[C@@H]1CC[C@H]1C(=O)O (racemic) [Example 47, (±)-(1R,2R)-2-(((6-(5-(((cyclopentyl(methyl)carbamoyl)oxy)methyl)-1-methyl-1H-1,2,3-triazol-4-yl)-2-methyl-pyridin-3-yl)oxy)methyl)cyclobutane carboxylic acid] |
| 72 nM | Cc1nc(-c2nnn(C)c2COC(=O)N(C)C2CCC2)ccc1OC[C@@H]1CC[C@H]1C(=O)O (racemic) [Example 48, (±)-(1R,2R)-2-(((6-(5-(((cyclobutyl(methyl)carbamoyl)oxy)methyl)-1-methyl-1H-1,2,3-triazol-4-yl)-2-methylpyridin-3-yl)oxy)methyl)cyclobutanecarboxylic acid] |
| 232 nM | Cc1nc(-c2nnn(C)c2COC(=O)N(C)CC(C)C)ccc1OC[C@@H]1CC[C@H]1C(=O)O (racemic) [Example 49, (±)-(1R,2R)-2-(((6-(5-(((isobutyl(methyl)carbamoyl)oxy)methyl)-1-methyl-1H-1,2,3-triazol-4-yl)-2-methylpyridin-3-yl)oxy)methyl)cyclobutanecarboxylic acid] |
| 22 nM | CCCCN(C)C(=O)OCc1c(-c2ccc(OC[C@@H]3CC[C@H]3C(=O)O)c(C)n2)nnn1C (racemic) [Example 50, (±)-(1R,2R)-2-(((6-(5-(((butyl(methyl)carbamoyl)oxy)methyl)-1-methyl-1H-1,2,3-triazol-4-yl)-2-methylpyridin-3-yl)oxy)methyl)cyclobutanecarboxylic acid] |
| 586 nM | CCC(C)Cc1nc(NCc2c(-c3ccc(OCC45CC(C(=O)O)(C4)C5)c(C)n3)nnn2C)no1 (racemic) [Example 56, (±)-3-(((2-methyl-6-(1-methyl-5-(((5-(2-methylbutyl)-1,2,4-oxadiazol-3-yl)amino)methyl)-1H-1,2,3-triazol-4-yl)pyridin-3-yl)oxy)methyl)bicyclo[1.1.1]pentane-1-carboxylic acid] |
| 3590 nM | Cc1nc(-c2nnn(C)c2NC(=O)OCC2CC2)ccc1OC[C@H]1CC[C@@H]1C(=O)O (racemic) [Example 59, (±)-(1S,2S)-2-(((6-(5-(((cyclopropyl-methoxy)carbonyl)amino)-1-methyl-1H-1,2,3-triazol-4-yl)-2-methyl-pyridin-3-yl)oxy)methyl)cyclobutane-1-carboxylic acid] |
| 1160 nM | Cc1nc(-c2nnn(C)c2CNc2noc(CC3CC3)n2)ccc1OC[C@H]1CC[C@@H]1C(=O)O (racemic) [Example 60, (±)-(1S,2S)-2-(((6-(5-(((5-(Cyclopropylmethyl)-1,2,4-oxadiazol-3-yl)amino)methyl)-1-methyl-1H-1,2,3-triazol-4-yl)-2-methylpyridin-3-yl)oxy)methyl) cyclobutane-1-carboxylic acid] |
| 7 nM | Cc1noc(-c2ccc(OC[C@@H]3CC[C@H]3C(=O)O)cn2)c1CNc1nccc(-c2ccccn2)n1 (single isomer, unassigned) [Example 3] |
| 14 nM | Cc1noc(-c2ccc(OC[C@H]3CC[C@@H]3C(=O)O)cn2)c1CNc1nccc(-c2ccccn2)n1 (single isomer, unassigned) [Example 4] |
| 26 nM | Cc1nc(-c2nnn(C)c2COC(=O)N(C)CC2CCC2)ccc1OC[C@@H]1CC[C@H]1C(=O)O (single isomer, unassigned) [Example 7] |
| 6 nM | Cc1nc(-c2nnn(C)c2COC(=O)N(C)CC2CCC2)ccc1OC[C@H]1CC[C@@H]1C(=O)O (single isomer, unassigned) [Example 8] |
| 77 nM | CCc1cc(OCc2c(-c3ccc(OC[C@@H]4CC[C@H]4C(=O)O)c(C)n3)nnn2C)ncn1 (single isomer, unassigned) [Example 12] |
| 28 nM | CCc1cc(OCc2c(-c3ccc(OC[C@H]4CC[C@@H]4C(=O)O)c(C)n3)nnn2C)ncn1 (single isomer, unassigned) [Example 13] |
| 1150 nM | Cc1nc(-c2nnn(C)c2CNc2nccc(C(C)C)n2)ccc1OC[C@@H]1CC[C@H]1C(=O)O (single isomer, unassigned) [Example 24] |
| 51 nM | Cc1nc(-c2nnn(C)c2CNc2nccc(C(C)C)n2)ccc1OC[C@H]1CC[C@@H]1C(=O)O (single isomer, unassigned) [Example 25] |
| 67 nM | Cn1nnc(-c2ccc(OC[C@@H]3CC[C@H]3C(=O)O)cn2)c1CNc1nccc(-c2ccccn2)n1 (single isomer, unassigned) [Example 28] |
| 186 nM | Cn1nnc(-c2ccc(OC[C@H]3CC[C@@H]3C(=O)O)cn2)c1CNc1nccc(-c2ccccn2)n1 (single isomer, unassigned) [Example 29] |
| 63 nM | Cc1nc(-c2nnn(C)c2Cn2nnc(CC3CC3)n2)ccc1OC[C@@H]1CC[C@H]1C(=O)O (single isomer, unassigned) [Example 38] |
| 250 nM | Cc1nc(-c2nnn(C)c2Cn2nnc(CC3CC3)n2)ccc1OC[C@H]1CC[C@@H]1C(=O)O (single isomer, unassigned) [Example 39] |
| 278 nM | Cc1nc(-c2nnn(C)c2COC(=O)N(C)CC2CCC2)ccc1O[C@H]1C[C@H](C(=O)O)C1 [Example 9, trans-3-((6-(5-((((cyclobutylmethyl)(methyl)carbamoyl)oxy)methyl)-1-methyl-1H-1,2,3-triazol-4-yl)-2-methylpyridin-3-yl)oxy)cyclobutane-1-carboxylic acid] |
| 789 nM | Cc1nc(-c2nnn(C)c2COC(=O)N(C)CC2CCC2)ccc1O[C@H]1C[C@@H](C(=O)O)C1 [Example 10, cis-3-((6-(5-((((cyclobutylmethyl)(methyl)carbamoyl)oxy)methyl)-1-methyl-1H-1,2,3-triazol-4-yl)-2-methylpyridin-3-yl)oxy)cyclobutane-1-carboxylic acid] |

| SMILES | IC50 |
| --- | --- |
| Cc1nc(-c2nnn(C)c2NC(=O)OCC(C)C)ccc1OC[C@@H]1CC[C@H]1C(=O)O (racemic) [Example 34, (±)-(1R,2R)-2-(((6-(5-((Isobutoxycarbonyl)amino)-1-methyl-1H-1,2,3-triazol-4-yl)-2-methylpyridin-3-yl)oxy)methyl)cyclobutane-1-carboxylic acid] | 1190 nM |
| Cc1nc(-c2nnn(C)c2CNC(=O)OCC(C)C)ccc1OC[C@@H]1CC[C@H]1C(=O)O (racemic) [Example 41, (±)-(1R,2R)-2-(((6-(5-(((isobutoxy-carbonyl)amino)methyl)-1-methyl-1H-1,2,3-triazol-4-yl)-2-methy-lpyridin-3-yl)oxy)methyl)cyclobutanecarboxylic acid] | 3750 nM |
| CCCCOC(=O)NCc1c(-c2ccc(OC[C@@H]3CC[C@H]3C(=O)O)c(C)n2)nnn1C (racemic) [Example 42, (±)-(1R,2R)-2-(((6-(5-(((butoxy-carbonyl)amino)methyl)-1-methyl-1H-1,2,3-triazol-4-yl)-2-methyl-pyridin-3-yl)oxy)methyl)cyclobutanecarboxylic acid] | 649 nM |
| CC[C@H](C)COC(=O)NCc1c(-c2ccc(OC[C@@H]3CC[C@H]3C(=O)O)c(C)n2)nnn1C (racemic) [Example 43, (±)-(1R,2R)-2-(((2-methyl-6-(1-methyl-5-(((((S)-2-methyl-butoxy)carbonyl)amino)methyl)-1H-1,2,3-triazol-4-yl)pyridin-3-yl)oxy)methyl)cyclobutane carboxylic acid] | 47 nM |
| Cc1nc(-c2nnn(C)c2CNC(=O)OCC(C)CC(F)(F)F)ccc1OC[C@@H]1CC[C@H]1C(=O)O (mixture of isomers) [Example 44, (±)-(1R,2R)-2-(((2-methyl-6-(1-methyl-5-((((4,4,4-trifluoro-2-methylbutoxy)carbonyl)amino)methyl)-1H-1,2,3-triazol-4-yl)pyridin-3-yl)oxy)methyl)cyclobutane carboxylic acid] | 103 nM |
